Experimental data taken from patent publication US7001983B1, “Antipathogenic synthetic peptides and compositions comprising them” (priority 1997, dated 2006).
Converted amounts (≈) assume the structure as drawn. Square brackets hold non-standard residues; d marks the D form. Peptide text beside a SMILES is read from it.

Columns and labels:
[1] = tested on: human red blood cells (hRBC); conditions: Oren and Shai, 1996; cited from earlier work
[2] = phosphatidylglycerol/phosphatidylcholine; Beschiaschvili and Seelig, 1990; cited from earlier work
[3] = CD spectroscopy, α-helix content; format: physicochemical; conditions: CD in 40% TFE
Method: (vii) CD Spectroscopy. The CD spectra of the peptides were measured with a Jasco J-500A spectropolarimeter after calibrating the instrument with (+)-10-camphorsulfonic acid. The spectra were scanned at 23° C. in a capped, quartz optical cell with a 0.5 mm path length. Spectra were obtained at wavelengths of 250 to 190 nm. Eight scans were taken for each peptide at a scan rate of 20 nm/min. […] Fractional helicities (Greenfield and Fasman, 1969; Wu et al., 1981) were calculated as follows: [formula] where [θ]222 is the experimentally-observed mean residue ellipticity at 222 nm, and the values for [θ]^0222 and [θ]^100222, which correspond to 0% and 100% helix content at 222 nm, are estimated to be 2000 and 32000 deg·cm^2/dmole,
1.2 Determination of the secondary structure of the peptides. The secondary structures of the peptides 1, 8, 12, 14, were evaluated from their CD spectra in 40% TFE, a solvent that strongly promotes an α-helical structure, as described in Experimental Procedures, section (vii), and in PBS (35 mM phosphate buffer/0.15 M NaCl, pH 7.0).

[4] = Membrane permeation, diffusion potential assay; conditions: dissipation of diffusion potential
Method: (xi) Membrane permeation induced by the peptides. Membrane permeation was assessed utilizing the diffusion potential assay (Loew et al., 1983; Sims et al., 1974) as previously described (Shai et al., 1991). In a typical experiment, in a glass tube, 4 μl of a liposomes suspension (final phospholipids concentration of 33 μM), in a K^+ containing buffer (50 mM K2SO4, 25 mM HEPES-SO4^−2, pH 6.8), was diluted in 1 ml of an isotonic K^+ free buffer (50 mM Na2SO4, 25 mM HEPES-SO4^−2, pH 6.8), and the fluorescent, potential-sensitive dye diS-C2-5 was then added. Valinomycin (1 μl of 10^−7 M) was added to the suspension in order to slowly create a negative diffusion potential inside the vesicles, which led to a quenching of the dye's fluorescence. Once the fluorescence had stabilized, which took 3–10 minutes, peptides were added. The subsequent dissipation of the diffusion potential, as reflected by an increase in fluorescence, was monitored on a Perkin Elmer LS-50B spectrofluorometer, with the excitation set at 620 nm, the emission at 670 nm, and the gain adjusted to 100%. The percentage of fluorescence recovery, Ft, was defined as: Ft=(It−I0/If−I0)×100 where I0=the initial fluorescence, If=the total fluorescence observed before the addition of valinomycin, and It=the fluorescence observed after adding the peptide at time t.
2.5.1 Membrane permeability induced by the peptides. […]

[5] = tested on: Micrococcus Iuteus ATCC 9341; assay: Antibacterial activity (MIC), growth inhibition in LB medium; format: cell-based, Micrococcus luteus; conditions: 100% inhibition of growth after 18–20 h
Method: (viii) Antibacterial activity of the peptides. The antibacterial activity of the diastereomers was examined in sterile 96-well plates (Nunc F96 microtiter plates) in a final volume of 100 μL as follows: Aliquots (50 μl) of a suspension containing bacteria at a concentration of 10^6 Colony-Forming Units (CFU)/ml LB (Lauria broth) medium were added to 50 μL of water or 66% pooled normal human serum in PBS, containing the peptide in 2-fold serial dilutions. Growth inhibition was determined by measuring the absorbance at 492 nm with a Microplate autoreader E1309 (Bio-tek Instruments), following incubation for 18–20 h at 37° C. […] The bacteria used were: Escherichia coli D21, Pseudomonas aeruginosa ATCC 27853, Acinetobacter calcoaceticus Ac11, Salmonella typhimurium LT2, Bacillus megaterium Bm11, Micrococcus Iuteus ATCC 9341, Bacillus subtilis ATCC 6051.

[6] = tested on: Pseudomonas aeruginosa ATCC 27853; conditions: 100% inhibition of growth after 18–20 h
Method: (viii) Antibacterial activity of the peptides.
Antibacterial activity of the mixtures was determined as described in Experimental procedures, section (xii).

Sendai virus (Z strain) = conditions: no release of hemoglobin after incubation 37° C. 60 min
Method: Sendai virus (Z strain) was grown in the allantoic sac of 10–11 day old embryonated chicken eggs, harvested 48 h after injection and purified. The virus was resuspended in buffer composed of 160 mM NaCl, 20 mM tricine, pH 7.4, and stored at −70° C. Virus haemagglutinating activity was measured in haemagglutinating units (HAU). One microliter contained ˜60000 HAU. Fresh human blood was obtained from a blood bank and stored for up to 1 month at 4° C. Prior to use, erythrocytes were washed twice with PBS pH 7.2, and diluted to the desired concentration (% v/v) with the same buffer. Virions, erythrocytes and peptides were mixed in different orders of addition and various amounts. The final incubation was always at 37° C. for 60 min. followed by centrifugation at 5700 g for 10 min to remove intact cells. In all cases duplicate samples were used and two aliquots were taken from the supernatant of each sample to two wells of a 96-well plate. The amount of hemoglobin release was monitored by measuring the absorbance of the wells with the ELISA, plate reader at 540 nm. Antiviral activity was expressed as the minimal inhibitory concentration (MIC), the concentration at which no release of hemoglobin was observed after incubation.

[7] = tested on: human red blood cells (hRBC); assay: Hemolysis of human red blood cells; format: cell-based
In short: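 Washed fresh erythrocytes at 5% v/v final in PBS pH 7.3 exposed to peptide 30 min at 37° C with agitation. Hemoglobin release read as supernatant absorbance at 540 nm after centrifugation, scaled between PBS (0%) and 1% Triton (100%).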

[8] = tested on: Leishmania mexicana NR strain promastigotes; assay: Anti-Leishmania activity, counting living promastigotes; format: cell-based; conditions: 100% death after 24 h of incubation
Method: The melittin-derived diastereomer peptide 20 (see Example 2 above) and the Leu/Lys diastereomer peptide 23 (see Example 3 above) were tested against Leishmania. Promastigotes of the Leishmania mexicana NR strain to be assayed were cultured at 27° C. in RPMI 1640 medium supplemented with 10% fetal bovine serum. Parasite were harvested by centrifugation at 1200×g for 10 min at 4° C. and washed twice with PBS (50 mM sodium phosphate, 150 mM NaCl, pH 7). The washed promastigotes were counted in a hemocytometer and adjusted to 1×10^6 parasites/ml. Aliquotes of this suspension were assayed in a final volume of 100 μl by counting living (motile) cells after 24 h of incubation at 26° C. in the absence or presence of various concentrations of the diastereomers.

Escherichia coli D21 = format: cell-based; conditions: 100% inhibition of growth after 18–20 h
Bacillus megaterium Bm11 = format: cell-based; conditions: 100% inhibition of growth after 18–20 h
[9] = tested on: Bacillus subtilis ATCC 6051; format: cell-based; conditions: 100% inhibition of growth after 18–20 h
[10] = tested on: Candida albicans (IP886-65); assay: Antifungal activity (MIC); format: cell-based; conditions: 100% inhibition of growth after 48 h at 30° C.
Method: (§1) The antifungal activity of the pardaxin-derived peptides 1 and 16 (see Example 1 above) was examined in sterile 96-well plates (Nunc F96 microtiter plates) in a final volume of 100 μL as follows: Fifty microliters of a suspension containing fungi at concentration of 1×10^6 Colony-Forming Units (CFU)/ml in culture medium (Sabouraud's glucose broth medium) was added to 50 μL of water containing the peptide in serial 2-fold dilutions in water. Inhibition of growth was determined by measuring the absorbance at 492 nm with a Microplate autoreader E1309 (Bio-tek Instruments), after an incubation time of 48 h at 30° C. […] The fungi used were: Candida albicans (IP886-65) and Cryptococcus neoformans (IP960-67).

[11] = tested on: Cryptococcus neoformans (IP960-67); assay: Antifungal activity (MIC); format: cell-based; conditions: 100% inhibition of growth after 48 h at 30° C.
Method: as §1

[12] = tested on: Acinetobacter calcoaceticus Ac11; format: cell-based; conditions: 100% inhibition of growth after 18–20 h

## Pardaxin
[1]
  hemolytic activity towards human erythrocytes relative to melittin (fold less): 40–100 fold

## CC[C@H](C)[C@H](NC(=O)CN)C(=O)NCC(=O)N[C@@H](C)C(=O)N[C@H](C(=O)N[C@@H](CC(C)C)C(=O)N[C@@H](CCCCN)C(=O)N[C@H](C(=O)N[C@@H](CC(C)C)C(=O)N[C@H](C(=O)N[C@H](C(=O)NCC(=O)N[C@@H](CC(C)C)C(=O)N1CCC[C@H]1C(=O)N[C@@H](C)C(=O)N[C@@H](CC(C)C)C(=O)N[C@H](C(=O)N[C@@H](CO)C(=O)N[C@@H](Cc1c[nH]c2ccccc12)C(=O)N[C@H](C(=O)N[C@@H](CCCCN)C(=O)N[C@@H](CCCNC(=N)N)C(=O)N[C@@H](CCCCN)C(=O)N[C@@H](CCCNC(=N)N)C(=O)N[C@@H](CCC(N)=O)C(=O)N[C@@H](CCC(N)=O)C(N)=O)[C@@H](C)CC)[C@@H](C)CC)[C@@H](C)O)[C@@H](C)O)C(C)C)C(C)C [Melittin]
[2]
  partition coefficient reported for melittin binding: 4.5±0.6×10^4 M^−1
[3]
  α-helix content: 73%
[4]
  membrane permeating activity with PC (zwitterionic) vesicles: highly active
[5]
  Minimal Inhibitory Concentration M. luteus (ATCC 9341): 0.4 µM
[6]
  Minimal Inhibitory Concentration P. aeruginosa (ATCC 27853): 25 µM

## CC(C)C[C@H](NC(=O)[C@H](CCCCN)NC(=O)[C@@H](CC(C)C)NC(=O)[C@@H](CC(C)C)NC(=O)[C@H](CC(C)C)NC(=O)[C@@H](N)CCCCN)C(=O)N[C@@H](CC(C)C)C(=O)N[C@H](CC(C)C)C(=O)N[C@@H](CCCCN)C(=O)N[C@H](CC(C)C)C(=O)N[C@@H](CC(C)C)C(=O)N[C@@H](CCCCN)C(N)=O [Peptide 23, [D]-L^3,4,8,10-K4L8] (H-KL[dL][dL]KLL[dL]K[dL]LK-NH2)
Sendai virus (Z strain)
  MIC Sendai virus: 80 µM (≈ 115 µg/mL)
[7]
  hemolytic activity in comparison to melittin (fold less): > 100 fold
[7]; red cells of human, 100
  % hemolysis at 100 μM: 0%
[8]
  MIC Leishmania mexicana: 17 µM (≈ 24.4 µg/mL)

## CC[C@H](C)[C@H](NC(=O)[C@H](CCCCN)NC(=O)[C@H]1CCCN1C(=O)[C@@H](NC(=O)[C@H](CC(C)C)NC(=O)[C@H](C)NC(=O)[C@H](Cc1ccccc1)NC(=O)[C@H](Cc1ccccc1)NC(=O)CN)[C@@H](C)CC)C(=O)N[C@H](C(=O)N[C@@H](CO)C(=O)N[C@@H](CO)C(=O)N1CCC[C@H]1C(=O)N[C@@H](CC(C)C)C(=O)N[C@@H](Cc1ccccc1)C(=O)N[C@@H](CCCCN)C(=O)N[C@H](C(=O)N[C@H](CC(C)C)C(=O)N[C@H](CC(C)C)C(=O)N[C@@H](CO)C(=O)N[C@@H](C)C(=O)N[C@H](C(=O)NCC(=O)N[C@@H](CO)C(=O)N[C@@H](C)C(=O)N[C@@H](CC(C)C)C(=O)N[C@@H](CO)C(=O)N[C@@H](CO)C(=O)N[C@@H](CO)C(=O)NCC(=O)NCC(=O)N[C@@H](CCC(N)=O)C(=O)N[C@@H](CCC(=O)NCCN)C(=O)NCCN)C(C)C)[C@@H](C)O)[C@@H](C)CC [Peptide 1, [D]P^7L^18L^19-TApar]
Escherichia coli D21
  Minimal Inhibitory Concentration E. coli (D21): 6 µM
Bacillus megaterium Bm11
  Minimal Inhibitory Concentration B. megaterium (Bm11): 0.9 µM
[9]
  Minimal Inhibitory Concentration B. subtilis (ATCC 6051): 3 µM
[10]
  Minimal Inhibitory Concentration Candida albicans (IP886-65): 35 µM
[11]
  Minimal Inhibitory Concentration Cryptococcus neoformans (IP960-67): 50 µM
[12]
  Minimal Inhibitory Concentration A. calcoaceticus (Ac11): 6 µM
[5]
  Minimal Inhibitory Concentration M. luteus (ATCC 9341): 12.5 µM
[7]; hRBC, 50 μM peptide, 30 min at 37° C.
  % hemolysis at 50 μM peptide: 5%
[7]; hRBC, up to 50 μM
  hemolytic activity up to the maximum concentration tested: practically devoid of hemolytic activity
